In patent US20140243324A1, “USE OF HEMATOPOIETIC GROWTH FACTOR MIMETICS” (LIGAND PHARMACEUTICALS INCORPORATED, priority 2010, published 2014):
Blank lines part the entries; values can stand above or below the compound they belong to.

Key:
Erythroid cells = assay: EPO-dependent cell viability assay; assay type: cell-based; conditions: for maximum efficacy relative to the efficacy of EPO (cell viability): erythroid cells, FIG. 3; for erythropoietic efficacy compared with EPO at typical serum concentrations: typical EPO in blood approx. 0.01 U/ml
Experimental: Erythroid cells were treated with various concentrations of recombinant human EPO, Compound 101, or Compound 102, and the viability of treated cells was measured. The maximum efficacies of Compounds 101 and 102 was approximately 40% of the efficacy of EPO, corresponding to EPO EC40 of approximately 0.02 U/ml (FIG. 3). The typical EPO concentration in blood is approximately 0.01 U/ml, with a range from about 0.006 U/ml to about 0.032 U/ml.

[1] = test system: CD34+ human bone marrow cells (BM-HCs); assay: Relative differentiation of human bone marrow cells (CD235a expression); assay type: cell-based; conditions: 10 nm Compound 101; FIG. 4
Experimental: CD34+ human bone marrow cells (BM-HCs) were treated with various concentrations of recombinant human EPO, Compound 101, Compound 102, or control. The number of cells expressing the erythrocyte-specific marker, CD235a (glycophorin A), was measured. […] The level of expression of CD235a in cells treated with 10 nm Compound 101 was approximately 37% of the level of expression of CD235a in cells treated with 2.0 U/ml EPO.

[2] = test system: CD34+ human bone marrow cells; assay: BFU-E colony formation in human CD34+ bone marrow cells; assay type: cell-based; conditions: Compound 101 10 nM
Experimental: CD34+ human bone marrow cells were incubated with recombinant human EPO, Compound 101, or control. Compound 101 stimulated the formation of BFU-E colonies with partial efficacy (31%) when incubated with BM-HCs.

PI3K [3] = assay: Phosphorylation of PI3K in UT7 cells; assay type: cell-based, human; conditions: 60 minutes, FIG. 5B
Experimental: (§1) UT7 cells were treated with 10 nM Compound 102, 100 nM Compound 102, or control (vehicle). Phosphorylation of the EPO receptor was measured after 15 minutes or 45 minutes of treatment with Compound 101 or control (vehicle) (FIG. 5A). Phosphorylation of PI3K was measured after 60 minutes of treatment with EPO, Compound 101, or control (vehicle) (FIG. 5B). Phosphorylation of GATA1 was measured after 60 minutes treatment with Compound 102, EPO or control (vehicle) (FIG. 5C).

GATA1 [4] = assay: Electrophoretic mobility shift assay for GATA1 in UT7 cells; assay type: cell-based, human; conditions: 30 minute treatment
Experimental: Binding of GATA1 to DNA was measured in an electrophoretic mobility shift assay for GATA1 in UT7 cells after 30 minute treatments with 1 U/ml EPO, 30 nM Compound 102, or 100 nM Compound 101.

UT7 cells = assay: Relative cell viability of UT7 cells transfected with EPO receptor- and GATA1-specific siRNAs; assay type: cell-based, human; conditions: 30 nM Compound 101, FIG. 7
Experimental: UT7 cells transfected with EPO receptor- and GATA1-specific siRNAs were treated with 1 U/ml EPO, 30 nM Compound 101, or control (vehicle). The relative cell viability of the cells was measured (FIG. 7).

EPO receptor = target: T1, EPO receptor (Homo sapiens, UniProt P19235); assay: Phosphorylation of the EPO receptor in UT7 cells; assay type: cell-based; conditions: 10 nM or 100 nM, 15 or 45 minutes, FIG. 5A
T1 construct: endogenous in cells; host or cells: UT7 cells
Experimental: as §1

GATA1 [5] = assay: Phosphorylation of GATA1 in UT7 cells; assay type: cell-based, human; conditions: 60 minutes, FIG. 5C
Experimental: as §1

[6] = test system: CD34+ human bone marrow hematopoietic cells (BM-HCs); assay: Percentage of CD235a (glycophorin A) positive cells in CD34+ BM-HCs; assay type: cell-based
[7] = test system: EPO responsive genes (hemoglobin α, EPO receptor, BCL2L1); assay: Expression of EPO responsive genes in CD34 positive BM-HCs; assay type: cell-based, human
BM-HCs [8] = assay: BFU-E colony formation in BM-HCs, 14 days; assay type: cell-based, human; conditions: incubated with BM-HCs for 14 days
Experimental: (§2) In addition, Compound 103 stimulated the formation of BFU-E colonies with partial efficacy (30%) when incubated with BM-HCs for 14 days. The effect of Compound 103 on BM-HCs was specific for the erythroid lineage.

BM-HCs [9] = assay: Lineage specificity in BM-HCs (CD41, CD15 markers); assay type: cell-based, human
Experimental: as §2

UT7EPO cells = assay: Apoptosis induced by EPO withdrawal / cell survival in UT7EPO cells; assay type: cell-based, human
Experimental: (§3) Using human cell lines, the action of Compound 103 was determined to be dependent on the EPO receptor and involves the selective activation of the PI3K/AKT-GATA1 signaling pathway.

BCL2L1 [10] = assay: BCL2L1 expression in UT7EPO cells; assay type: cell-based, human
Experimental: as §3

EPOR = target: T2, EPOR (Homo sapiens, UniProt P19235); assay: Phosphorylation of EPOR in UT7EPO cells; assay type: cell-based
T2 construct: In the human EPO-dependent cell line UT7EPO; endogenous in cells; host or cells: UT7EPO cells
Experimental: as §3

PI3K [11] = assay: Phosphorylation of PI3K in UT7EPO cells; assay type: cell-based, human
Experimental: as §3

GATA1 [12] = assay: Phosphorylation of GATA1 in UT7EPO cells; assay type: cell-based, human
Experimental: as §3

STAT5 [13] = assay: Phosphorylation of STAT5 in UT7EPO cells; assay type: cell-based, human
Experimental: as §3

ERK/MAPK = assay: Phosphorylation of ERK/MAPK in UT7EPO cells; assay type: cell-based, human
Experimental: as §3

GATA1 [14] = assay: Binding of GATA1 to DNA in UT7EPO cells; assay type: cell-based, human
Experimental: as §3

STAT5 [15] = assay: STAT5 DNA binding in UT7EPO cells; assay type: cell-based, human
Experimental: as §3

Mo7e cells = assay: Apoptosis in Mo7e cells that lack EPO receptor; assay type: cell-based; conditions: GM-CSF- and TPO-responsive human leukemia Mo7e cells that lack EPO receptor
BCL2L1 [16] = assay: BCL2L1 expression in Mo7e cells that lack EPO receptor; assay type: cell-based; conditions: GM-CSF- and TPO-responsive human leukemia Mo7e cells that lack EPO receptor

T2 sequence (P19235 25-508): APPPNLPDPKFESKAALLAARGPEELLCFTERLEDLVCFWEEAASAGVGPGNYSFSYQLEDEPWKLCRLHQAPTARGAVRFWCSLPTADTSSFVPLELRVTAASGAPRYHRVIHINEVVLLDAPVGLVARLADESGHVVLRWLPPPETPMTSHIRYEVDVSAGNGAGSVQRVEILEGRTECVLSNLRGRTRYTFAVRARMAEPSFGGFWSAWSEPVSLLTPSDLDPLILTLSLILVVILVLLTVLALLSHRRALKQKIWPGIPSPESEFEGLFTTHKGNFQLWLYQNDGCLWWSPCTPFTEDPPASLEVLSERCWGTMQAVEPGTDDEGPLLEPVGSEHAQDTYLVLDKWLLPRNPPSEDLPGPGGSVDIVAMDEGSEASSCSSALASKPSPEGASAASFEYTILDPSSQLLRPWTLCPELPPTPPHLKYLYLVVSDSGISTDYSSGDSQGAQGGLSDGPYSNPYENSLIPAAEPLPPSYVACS
T2 sequence (O60674 whole entry partner): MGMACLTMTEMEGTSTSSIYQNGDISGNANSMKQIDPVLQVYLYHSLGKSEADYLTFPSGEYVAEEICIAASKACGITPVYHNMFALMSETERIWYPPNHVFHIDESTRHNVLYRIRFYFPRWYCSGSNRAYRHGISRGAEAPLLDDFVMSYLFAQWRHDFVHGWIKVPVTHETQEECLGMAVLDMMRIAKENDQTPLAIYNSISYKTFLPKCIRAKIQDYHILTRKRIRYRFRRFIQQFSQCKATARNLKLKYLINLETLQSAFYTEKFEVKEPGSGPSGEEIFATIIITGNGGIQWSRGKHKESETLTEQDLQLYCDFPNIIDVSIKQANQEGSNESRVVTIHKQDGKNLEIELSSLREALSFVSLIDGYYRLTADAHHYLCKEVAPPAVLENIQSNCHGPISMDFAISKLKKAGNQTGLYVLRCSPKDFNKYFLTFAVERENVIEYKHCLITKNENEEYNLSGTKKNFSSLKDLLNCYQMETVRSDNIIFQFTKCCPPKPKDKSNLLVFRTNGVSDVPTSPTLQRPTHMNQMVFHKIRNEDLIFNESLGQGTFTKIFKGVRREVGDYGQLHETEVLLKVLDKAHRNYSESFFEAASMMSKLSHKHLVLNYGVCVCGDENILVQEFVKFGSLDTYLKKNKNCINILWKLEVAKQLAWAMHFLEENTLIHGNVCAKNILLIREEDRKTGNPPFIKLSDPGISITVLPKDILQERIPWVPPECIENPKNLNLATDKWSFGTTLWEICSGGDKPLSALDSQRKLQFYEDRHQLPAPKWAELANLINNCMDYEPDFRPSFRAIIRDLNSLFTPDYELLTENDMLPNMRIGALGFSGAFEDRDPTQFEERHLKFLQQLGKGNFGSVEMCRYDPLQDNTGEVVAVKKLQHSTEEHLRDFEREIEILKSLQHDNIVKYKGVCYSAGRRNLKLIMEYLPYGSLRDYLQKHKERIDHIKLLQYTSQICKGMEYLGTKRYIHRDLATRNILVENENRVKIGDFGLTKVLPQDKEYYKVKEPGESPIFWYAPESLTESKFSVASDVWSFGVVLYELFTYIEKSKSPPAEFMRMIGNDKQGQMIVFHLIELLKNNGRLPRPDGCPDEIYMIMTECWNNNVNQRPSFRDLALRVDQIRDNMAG
T1 sequence (P19235 25-508): as the sequence (P19235 25-508) above
T1 sequence (O60674 whole entry partner): as the sequence (O60674 whole entry partner) above

Compound: CN(C)c1ccc(C(=O)N/N=C/c2ccc(Oc3ccc(/C=N/NC(=O)c4ccc(N(C)C)cc4)cc3)cc2)cc1 [Compound 101, (N′,N′″E,N′,N′″E)-N′,N′″-((Oxybis(4,1-phenylene))bis(methanylylidene))bis(4-(dimethylamino)benzohydrazide)]
- maximum efficacy relative to the efficacy of EPO (cell viability) (Erythroid cells): approximately 40%
- erythropoietic efficacy compared with EPO at typical serum concentrations (Erythroid cells): greater than would be predicted for EPO at typical serum concentrations
- level of expression of CD235a compared with cells treated with 0.01 U/ml EPO [1]: above the level of expression observed in cells treated with 0.01 U/ml EPO
- level of expression of CD235a relative to cells treated with 2.0 U/ml EPO [1]: approximately 37%
- % BFU-E relative to 3 U/ml EPO [2]: 31%
- BFU-Es/Dish [2]: 11
- phosphorylation of PI3K (PI3K [3]): stimulated phosphorylation
- binding of GATA1 to DNA (EMSA) (GATA1 [4]; 100 nM Compound 101): induce binding of GATA1 to DNA
- effect of EPO receptor- and GATA1-specific siRNAs on compound activity (relative cell viability) (UT7 cells): blocks activity

- phosphorylation of the EPO receptor (EPO receptor): stimulated phosphorylation
Compound: COc1cccc(C(=O)N/N=C/c2ccc(Oc3ccc(/C=N/NC(=O)c4cccc(OC)c4)cc3)cc2)c1 [Compound 102, (N′,N′″E,N′,N′″E)-N′,N′″-((oxybis(4,1-phenylene))bis(methanylylidene))bis(3-methoxybenzohydrazide)]
- maximum efficacy relative to the efficacy of EPO (cell viability) (Erythroid cells): approximately 40%
- erythropoietic efficacy compared with EPO at typical serum concentrations (Erythroid cells): greater than would be predicted for EPO at typical serum concentrations
- phosphorylation of GATA1 (GATA1 [5]): stimulated phosphorylation
- binding of GATA1 to DNA (EMSA) (GATA1 [4]; 30 nM Compound 102): induce binding of GATA1 to DNA

- EC50 ([6]; Homo sapiens, CD34+ BM-HCs, read-out: EC50, increase of percentage of cells positive for CD235a): 2 nM
- expression of EPO responsive genes including hemoglobin α, EPO receptor and BCL2L1 [7]: stimulated the expression
- phosphorylation of EPOR (EPOR): stimulated the phosphorylation
Compound: CN(C)c1ccc(C(=O)N/N=C/c2cccc(/C=N/NC(=O)c3ccc(N(C)C)cc3)c2)cc1 [Compound 103, (N′,N′″E,N′,N′″E)-N′,N′″-(1,3-phenylenebis(methanylylidene))bis(4-(dimethylamino)benzohydrazide)]
- erythropoietic effect in combination with EPO ([6]; BM-HCs): additive to the effect of EPO
- Emax ([6]; Homo sapiens, CD34+ BM-HCs, read-out: efficacy relative to the maximal effect of EPO (3 U/ml), CD235a positive cells): 42%
- efficacy compared with the normal serum EPO concentration, CD235a positive cells ([6]; normal serum EPO (−0.01 U/ml)): greater than the efficacy of the normal serum EPO concentration
- formation of BFU-E colonies, partial efficacy (BM-HCs [8]): 30%
- percentage of BM-HCs positive for the granulocyte marker CD15 (BM-HCs [9]): did not increase
- percentage of BM-HCs positive for the megakaryocyte marker CD41 (BM-HCs [9]): did not increase
- EC50 (UT7EPO cells; Homo sapiens, UT-7/Epo, UT7EPO cells, read-out: EC50, block of apoptosis induced by EPO withdrawal): 10 nM
- activity after transfection with EPO receptor- and GATA1-specific siRNAs (UT7EPO cells; UT7EPO cells): blocked the activity
- effect on cell survival in presence of the PI3K inhibitor LY294002 (UT7EPO cells; UT7EPO cells incubated with LY294002): blocked the effect
- stimulation of the expression of BCL2L1, efficacy (BCL2L1 [10]): efficacy comparable to EPO
- phosphorylation of PI3K (PI3K [11]): stimulated the phosphorylation
- phosphorylation of GATA1 (GATA1 [12]): stimulated the phosphorylation
- phosphorylation of STAT5 (STAT5 [13]): did not stimulate phosphorylation
- phosphorylation of ERK/MAPK (ERK/MAPK): did not stimulate phosphorylation
- binding of GATA1 to DNA (GATA1 [14]): induced the binding of GATA1 to DNA
- induction of STAT5 DNA binding (STAT5 [15]): did not
- block of apoptosis (Mo7e cells): did not block apoptosis
- stimulation of BCL2L1 expression (BCL2L1 [16]): did not
